Several values for one entry are separate records, joined by “and”; a condition that tells them apart may be missing. Identical values can stand only once. Entries after “also recorded” stand apart in the source; their conditions may differ.
How the values were obtained:
[1] = system: Bovine aortic endothelial cells (BAEC); experiment: Colony assay on vascular endothelial cells with 60Co γ-ray irradiation; assay type: cell-based; design: key to actually measured SF value of combined use group / actually measured SF value of combined use: SF = colonies/seeded cells×(PE/100); PE = control colony formation rate; details: for SF (cell surviving fraction), administration alone: 24 hours, no irradiation
Procedure: Bovine aortic endothelial cells (BAEC) were appropriately seeded on a petri dish, and adhesion of cells was confirmed after 2 to 3 hours. In a group of α-SQMG C18:0 administration alone and a combined use group, the cells were treated with 10 μM of α-SQMG C18:0. After 24 hours, a medium was exchanged in all test groups, and 4 Gy of ^60Co γ-ray was irradiated in a group of irradiation alone and a combined use group. After the cells were cultured in a CO2 incubator at 37° C. for 10 to 12 days, formed colonies were fixed with formalin, and stained with a crystal violet staining solution. On each plate, the number of colonies consisting of about 50 or more cells was counted, and cell surviving fraction (SF) was obtained according to the following equation.
SF (cell surviving fraction)=number of colonies/number of seeded cells×(PE/100)
Herein, PE (plating efficiency) represents a colony formation rate (%) on a plate of a control.
An experiment was performed three times, and an average of them was calculated.
The same experiment as that of Experimental Example 2-1 was performed except that a radiation dose 6 Gy was irradiated in place of 4 Gy used in Experimental Example 2-1. […]

[2] = system: Human esophageal cancer cells (TE-8 cells); experiment: Animal experiment: TE-8 tumor-transplanted nude mice, tumor growth delay with X-ray irradiation; assay type: in vivo; details: Exp. Ex. 1-5: X-ray 8 Gy day 0 and day 4
Procedure: Five nude mice (eight weeks old) were randomly assigned to each of four groups. Human esophageal cancer cells (TE-8 cells) were transplanted to each mouse in the same manner as the above Experimental Example 1-1. When tumor volume reached 50 mm^3, α-SQMG C18:0 administration and irradiation treatment were performed. In a single use group of irradiation, each mouse was irradiated with X-ray at a dose of 8 Gy two times on day 0 and day 4. In a single use group of α-SQMG C18:0 administration, the sensitizer was intraperitoneally administered at a concentration of 1 mg/kg once a day at a total of 5 times from day 0 to day 4. In a combined use group, each mouse of the group was treated with both of irradiation and α-SQMG C18:0 administration. In the control group, neither irradiation nor α-SQMG C18:0 administration was performed. Thereafter, tumor volume was measured over a period of 51 days in the same manner as the above Experimental Example 1-1.
In addition, an enhancement ratio (ER) was obtained according to the method described in Experimental Example 1-2. […] For this reason, an enhancement ratio was calculated from the number of days until tumor volume reaches 400 mm^3. As a result, ER was 3.25, and it was shown that synergistic effect was extremely high.

[3] = system: human lung cancer cells (A549 cells); experiment: Animal experiment: A549 tumor-transplanted nude mice, tumor growth delay with X-ray irradiation; assay type: in vivo; details: Exp. Ex. 1-7: X-ray 4 Gy day 0 and day 3, 1 mg/kg i.p. once a day day 0 to 4
Procedure: In the present Experimental Example, an experiment was performed in the same manner as in the aforementioned Experimental Examples except that human lung cancer cells (A549 cells) were transplanted into a nude mouse. Details of the experiment will be described below.
Four nude mice (eight weeks old) were randomly assigned to each of four groups. 2.0×10^6 human lung cancer cells (A549 cells) were suspended in PBS (−), and the suspension was transplanted subcutaneously into a right thigh of each mouse. After 45 days, when tumor volume became about 50 mm^3, each mouse was subjected to treatment according to each group. As a radiosensitizer, α-SQMG C18:0 was used as in the aforementioned Experimental Examples. In a single use group of irradiation, X-ray was irradiated two times (at the time of treatment initiation (day 0) and on day 3 after the treatment initiation) at a dose of 4 Gy. In a single use group of α-SQMG C18:0 administration, α-SQMG C18:0 was intraperitoneally administered at a concentration of 1 mg/kg once a day at a total of 5 times from the time of treatment initiation (day 0) to day 4. […] Thereafter, a short diameter and a long diameter of a tumor were measured with a micrometer caliper over a period of 20 days. Tumor volume was calculated according to the following equation, and the tumor growth delaying effect was compared. […]

[4] = system: angiogenesis (tube formation); experiment: Assay by angiogenesis kit (KZ-1000), tube formation; assay type: cell-based
Procedure: The anti-angiogenic effect obtained by combined use of 20 μM of α-SQMG C18:0 administration and 4 Gy of ^60Co γ-ray irradiation was investigated using an angiogenesis kit (“angiogenesis kit KZ-1000” of Kurabo Industries Ltd.).
A drug named Suramin is the known substance as a drug suppressing angiogenesis, and it is known that its action is to inhibit a growth factor receptor of a vascular endothelial cell. In the present Example, Suramin was used as a positive control at 50 μM.
As described above, the “theoretical additive point of combined use” is calculated by multiplication, and the theoretical value is compared with an actually measured value.

[5] = 4 Gy 60Co γ-ray + α-SQMG C18:0 20 μM or Suramin 50 μM

CCCCCCCCCCCCCCCCCC(=O)OCC(O)CO[C@H]1O[C@H](CS(=O)(=O)[O-])[C@@H](O)[C@H](O)[C@H]1O.[Na+] (stereo partly drawn) [α-SQMG C18:0, 3-O-(6-deoxy-6-sulfo-α-D-glucopyranosyl)-1-O-stearoyl-glycerol sodium salt]
actually measured SF value of combined use ([1]; 5 μM + 2 Gy 60Co γ-ray): 0.1370 | theoretical additive point of combined use (SF) ([1]; 5 μM + 2 Gy 60Co γ-ray): 0.6012 | SF (cell surviving fraction), administration alone ([1]; 5 μM): 1.0094 | actually measured SF value of combined use ([1]; 10 μM + 2 Gy 60Co γ-ray): 0.0644 | theoretical additive point of combined use (SF) ([1]; 10 μM + 2 Gy 60Co γ-ray): 0.5620 | actually measured SF value of combined use group ([1]; 10 μM + 4 Gy 60Co γ-ray): 0.0640 | theoretical additive point of combined use (SF) ([1]; 10 μM + 4 Gy 60Co γ-ray): 0.0974 | actually measured SF value of combined use group ([1]; 10 μM + 6 Gy 60Co γ-ray): 0.0180 | theoretical additive point of combined use (SF) ([1]; 10 μM + 6 Gy 60Co γ-ray): 0.0505 | SF (cell surviving fraction), administration alone ([1]; 10 μM, sodium salt): 0.616 and 0.9433 | synergistic effect of combined use with radiation on suppression of proliferation of vascular endothelial cells ([1]; 10 μM, 4 Gy and/or 6 Gy): considerably great synergistic effect | cell proliferation suppressing effect, treatment alone ([1]; Exp. Ex. 2-5: 0 to 25 μM, 0 Gy): cell proliferation suppressing effect is not obtained | effect of irradiation on suppression of cell proliferation, combined use ([1]; Exp. Ex. 2-5: 0 to 25 μM, 2 to 8 Gy 60Co γ-ray): increased | enhancement ratio (ER) ([2]; 1 mg/kg i.p. day 0 to 4, calculated from days until tumor volume reaches 400 mm^3): 3.25 | anti-tumor effect (tumor volume), combined use with irradiation ([2]; 1 mg/kg i.p. once a day day 0 to 4): anti-tumor effect far exceeding the anti-tumor effect attained by irradiation | enhancement ratio (ER) [3]: cannot be calculated | anti-tumor effect (tumor volume), combined use with irradiation ([3]; sodium salt, 1 mg/kg): anti-tumor effect exceeding the anti-tumor effect attained by irradiation alone; also recorded: increase in tumor volume is scarcely seen | tube formation rate, Actually measured value, combined use [4, 5]: 0.0762 | tube formation rate, Theoretical value (theoretical additive point of combined use) [4, 5]: 0.467 | tube formation rate, use alone ([4]; α-SQMG C18:0 20 μM, Suramin 50 μM, no irradiation): 0.7229

From patent US20090253644A1, “Radiosensitizer” (TOYO SUISAN KAISHA, LTD., priority 2004, published 2009)
